ChEMBL document CHEMBL5321219, “Selective degradation of cellular BRD3 and BRD4-L promoted by PROTAC molecules in six cancer cell lines” (Eur J Med Chem, 2023)
The source made the active and inactive calls. The rule behind the calls is not given here.

Legend:
[1] = target: T1, Protein cereblon/Bromodomain-containing protein 2 (Homo sapiens) (UniProt P25440+Q96SW2); experiment: PROTAC activity at CRBN/BRD2 in human A549 cells assessed as induction of protein degradation at 3 to 1000 nM measured after 24 hrs by Western blot analysis; type: cell-based; conditions: dose 3-1000 nM
[2] = target: T2, Protein cereblon/Bromodomain-containing protein 4 (Homo sapiens) (UniProt O60885+Q96SW2); experiment: PROTAC activity at CRBN/BRD4-L in human MCF7 cells assessed as induction of protein degradation at 30 nM by Western blot analysis; type: cell-based; conditions: time 1-3 hrs, TDE = time-dependent effect
[3] = target: T2, Protein cereblon/Bromodomain-containing protein 4 (Homo sapiens); experiment: PROTAC activity at CRBN/BRD4-L in human HGC-27 cells assessed as induction of protein degradation measured after 24 hrs by Western blot analysis; type: cell-based; conditions: dose 0.1-30 nM
[4] = target: T2, Protein cereblon/Bromodomain-containing protein 4 (Homo sapiens); experiment: PROTAC activity at CRBN/BRD4-L in human MM1.S cells assessed as induction of protein degradation at 30 nM pretreated with (6R)-N-(4-chlorophenyl)-1-methyl-8-(1-methyl-1H-pyrazol-4-yl)-5,6-dihydro-4H-benzo[f][1,2,4]triazolo[4,3-a]azepin-6-amine for 2 hrs followed by compound addition and measured after 4 hrs by Western blot analysis; type: cell-based
[5] = target: T2, Protein cereblon/Bromodomain-containing protein 4 (Homo sapiens); experiment: PROTAC activity at CRBN/BRD4-L in human MM1.S cells assessed as induction of protein degradation at 30 nM pretreated with 0.2 to 10 uM MG132 for 2 hrs followed by compound addition and measured after 4 hrs by Western blot analysis; type: cell-based
[6] = test system: MM1.S; experiment: Induction of cell cycle arrest in human MM1.S cells assessed as accumulation of cells at G1 phase at 10 nM incubated for 24 hrs by flow cytometry analysis (reference value: 56.32%); type: functional
[7] = target: T2, Protein cereblon/Bromodomain-containing protein 4 (Homo sapiens); experiment: PROTAC activity at CRBN/BRD4-L in human MM1.S cells assessed as induction of protein degradation at 30 nM measured after 3 to 6 hrs by Western blot analysis; type: cell-based; conditions: time 3-6 hrs
[8] = target: T2, Protein cereblon/Bromodomain-containing protein 4 (Homo sapiens); experiment: PROTAC activity at CRBN/BRD4-S in human U-937 cells assessed as induction of protein degradation by Western blot analysis; type: cell-based
[9] = target: T2, Protein cereblon/Bromodomain-containing protein 4 (Homo sapiens); experiment: PROTAC activity at CRBN/BRD4-L in human MM1.S cells assessed as induction of protein degradation at 2 nM measured after 24 hrs by Western blot analysis; type: cell-based
[10] = target: T2, Protein cereblon/Bromodomain-containing protein 4 (Homo sapiens); experiment: PROTAC activity at CRBN/BRD4-S in human HepG2 cells assessed as induction of protein degradation at 10 to 3000 nM measured after 24 hrs by Western blot analysis; type: cell-based; conditions: dose 10-3000 nM
[11] = test system: A549; experiment: Antiproliferative activity against human A549 cells assessed as cell growth inhibition measured after 4 days by CCK-8 assay; type: functional, cell-based; conditions: A549, 96 h
[12] = target: T1, Protein cereblon/Bromodomain-containing protein 2 (Homo sapiens); experiment: PROTAC activity at CRBN/BRD2 in human MCF7 cells assessed as induction of protein degradation at 1 to 300 nM measured after 24 hrs by Western blot analysis; type: cell-based; conditions: dose 1-300 nM
[13] = test system: HGC-27; experiment: Antiproliferative activity against human HGC-27 cells assessed as cell growth inhibition measured after 4 days by CCK-8 assay; type: functional, cell-based; conditions: HGC-27, 96 h
[14] = test system: MM1.S; experiment: Induction of cell cycle arrest in human MM1.S cells assessed as accumulation of cells at S phase at 3 nM incubated for 24 hrs by flow cytometry analysis (reference value: 22.37%); type: functional

T2 sequence (Q96SW2 whole entry, looked up, other chains not shown): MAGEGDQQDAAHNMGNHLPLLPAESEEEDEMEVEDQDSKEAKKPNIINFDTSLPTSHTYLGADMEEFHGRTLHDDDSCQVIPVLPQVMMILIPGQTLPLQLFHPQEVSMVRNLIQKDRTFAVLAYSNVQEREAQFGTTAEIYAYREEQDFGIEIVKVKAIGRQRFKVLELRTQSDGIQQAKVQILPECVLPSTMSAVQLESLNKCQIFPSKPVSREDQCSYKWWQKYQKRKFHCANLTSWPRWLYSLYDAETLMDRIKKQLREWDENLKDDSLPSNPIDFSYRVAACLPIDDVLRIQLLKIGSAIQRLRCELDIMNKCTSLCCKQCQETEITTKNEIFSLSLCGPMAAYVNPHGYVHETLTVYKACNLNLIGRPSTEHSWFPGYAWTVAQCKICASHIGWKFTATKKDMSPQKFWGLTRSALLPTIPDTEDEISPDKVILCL
T1 sequence (P25440 whole entry, looked up): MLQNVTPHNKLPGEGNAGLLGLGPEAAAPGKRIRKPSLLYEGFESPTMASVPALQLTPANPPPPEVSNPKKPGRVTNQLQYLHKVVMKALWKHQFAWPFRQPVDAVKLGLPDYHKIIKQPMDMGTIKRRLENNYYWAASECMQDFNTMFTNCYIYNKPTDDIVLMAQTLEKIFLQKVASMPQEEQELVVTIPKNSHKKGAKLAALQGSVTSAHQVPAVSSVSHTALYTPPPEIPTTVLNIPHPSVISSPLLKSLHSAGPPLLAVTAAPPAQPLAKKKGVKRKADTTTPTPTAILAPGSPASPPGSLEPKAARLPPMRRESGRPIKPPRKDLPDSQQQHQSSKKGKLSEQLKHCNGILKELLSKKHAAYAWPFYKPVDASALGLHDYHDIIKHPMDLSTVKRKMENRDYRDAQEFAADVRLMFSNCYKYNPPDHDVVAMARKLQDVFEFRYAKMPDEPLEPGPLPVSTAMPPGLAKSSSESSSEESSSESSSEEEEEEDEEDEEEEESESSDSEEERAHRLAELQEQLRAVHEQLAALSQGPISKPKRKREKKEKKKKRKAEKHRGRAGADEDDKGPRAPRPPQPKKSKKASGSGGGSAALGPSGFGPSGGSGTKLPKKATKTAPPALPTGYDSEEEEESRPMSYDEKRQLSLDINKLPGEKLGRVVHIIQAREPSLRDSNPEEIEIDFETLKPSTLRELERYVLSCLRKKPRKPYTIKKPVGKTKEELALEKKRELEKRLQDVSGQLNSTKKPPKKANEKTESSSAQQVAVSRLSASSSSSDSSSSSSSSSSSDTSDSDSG
T1 sequence (Q96SW2 whole entry, looked up): as the sequence (Q96SW2 whole entry, looked up, other chains not shown) above

Cc1nnc2n1-c1ccc(-c3ccc(CNCCCCc4cccc5c4CN(C4CCC(=O)NC4=O)C5=O)cc3)cc1C(Nc1ccc(Cl)cc1)CC2 (centres undefined)
Activity [1]: inactive | Activity [2]: Tde | Activity [3]: Dose-Dependent Effect | Activity [4]: inactive | Activity [5]: inactive | Activity [6]: 63.9% | Activity [7]: Active | Activity [8]: Dose-Dependent Effect | Activity [9]: Active | Activity [10]: inactive | IC50 [11]: 14.3 µM | Activity [12]: inactive | IC50 [13]: 2.35 µM | Activity [14]: 17.72%
